Results as given in patent US12304890B2, “R-type pyridyloxycarboxylic acid, salt and ester derivative thereof, and preparation method therefor, and herbicidal composition and application thereof” (Qingdao Kingagroot Chemical Compound Co., Ltd., priority 2018, dated 2025).

Assays:
Assay type in all cases: in vivo
Digitaria sanguinalis = experiment: Post-emergence test experiment, Digitaria sanguinalis; details: 1000 g a.i./ha, 3 weeks in greenhouse, fresh weight inhibition
Description: (§1) The above described growth inhibition rate is fresh weight inhibition rate.
(§2) Post-emergence test experiment: Monocotyledonous and dicotyledonous weed seeds and main crop seeds (i. e. wheat, corn, rice, soybean, cotton, oilseed, millet and sorghum.) were put into a plastic pot loaded with soil. Then covered with 0.5-2 cm soil, the seeds were allowed to grow in good greenhouse environment. The test plants were treated at 2-3 leaf stage 2 weeks after sowing. The test compounds of the invention were dissolved with acetone respectively, then added with tween-80, and using 1.5 liters per hectare of an emulsible concentrate of methyl oleate as a synergist, and diluted by certain amount of water to certain concentration. The solution was sprayed to the plants with a sprayer. Then the plants were cultured for 3 weeks in the greenhouse, and the experiment result of weed controlling effect was listed in tables 4-5.

Echinochloa crusgalli = experiment: Post-emergence test experiment, Echinochloa crusgalli; details: 1000 g a.i./ha, 3 weeks in greenhouse, fresh weight inhibition
Description: as §1, §2

[1] = system: Monocotyledonous and dicotyledonous weed seeds and main crop seeds; experiment: Post-emergence test experiment, other weeds and crops (Table 4, 1000 g a.i./ha); details: 3 weeks in greenhouse, fresh weight inhibition
How it was run: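 Weed and crop seeds (wheat, corn, rice, soybean, cotton, oilseed, millet, sorghum) sown in soil pots in a greenhouse and sprayed at 2-3 leaf stage, 2 weeks after sowing. Compound in acetone/tween-80 with methyl oleate concentrate (1.5 L/ha) as synergist. Effect recorded as fresh-weight growth inhibition rate.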

SMILES | Activity level (growth inhibition rate), Digitaria sanguinalis (Digitaria sanguinalis) | Activity level (growth inhibition rate), Echinochloa crusgalli (Echinochloa crusgalli) | Activity level (growth inhibition rate), Abutilon theophrasti Medic. [1] | Activity level (growth inhibition rate), Galium aparine [1] | Activity level (growth inhibition rate), Monochoria Vaginalis [1]
CC(Oc1nc(F)c(Cl)c(N)c1Cl)C(=O)OCC#N (stereo not shown) [Compound 2-267] | 5 (Level 5: the growth inhibition rate is greater than 85%) | 5 (Level 5: the growth inhibition rate is greater than 85%) | 5 (Level 5: the growth inhibition rate is greater than 85%) | 5 (Level 5: the growth inhibition rate is greater than 85%) | 5 (Level 5: the growth inhibition rate is greater than 85%)
CC(Oc1nc(F)c(Cl)c(N)c1Cl)C(=O)Sc1cccc(Cl)c1 (stereo not shown) [Compound 2-357] | 5 (Level 5: the growth inhibition rate is greater than 85%) | 5 (Level 5: the growth inhibition rate is greater than 85%) | 5 (Level 5: the growth inhibition rate is greater than 85%) | 5 (Level 5: the growth inhibition rate is greater than 85%) | 5 (Level 5: the growth inhibition rate is greater than 85%)
C[C@@H](Oc1nc(F)c(Cl)c(N)c1Cl)C(=O)OCc1cccc(C#N)c1 [Compound 2-335] | 5 (Level 5: the growth inhibition rate is greater than 85%) | 5 (Level 5: the growth inhibition rate is greater than 85%) | 5 (Level 5: the growth inhibition rate is greater than 85%) | 5 (Level 5: the growth inhibition rate is greater than 85%) | 5 (Level 5: the growth inhibition rate is greater than 85%)
COC(=O)[C@@H](C)Oc1nc(C)c(Cl)c(N)c1Cl [Compound 2-32] | 5 (Level 5: the growth inhibition rate is greater than 85%) | 5 (Level 5: the growth inhibition rate is greater than 85%) | 5 (Level 5: the growth inhibition rate is greater than 85%) | 5 (Level 5: the growth inhibition rate is greater than 85%) | 5 (Level 5: the growth inhibition rate is greater than 85%)
CC(Oc1nc(F)c(Cl)c(N)c1Cl)C(=O)SCc1ccc(F)cc1 (stereo not shown) [Compound 2-313] | 5 (Level 5: the growth inhibition rate is greater than 85%) | 5 (Level 5: the growth inhibition rate is greater than 85%) | 5 (Level 5: the growth inhibition rate is greater than 85%) | 5 (Level 5: the growth inhibition rate is greater than 85%) | 5 (Level 5: the growth inhibition rate is greater than 85%)
C[C@@H](Oc1nc(F)c(Cl)c(N)c1Cl)C(=O)OCc1ccccc1C#N [Compound 2-333] | 5 (Level 5: the growth inhibition rate is greater than 85%) | 5 (Level 5: the growth inhibition rate is greater than 85%) | 5 (Level 5: the growth inhibition rate is greater than 85%) | 5 (Level 5: the growth inhibition rate is greater than 85%) | 5 (Level 5: the growth inhibition rate is greater than 85%)
CC(Oc1nc(F)c(Cl)c(N)c1Cl)C(=O)SCc1ccccc1Br (stereo not shown) [Compound 2-321] | 5 (Level 5: the growth inhibition rate is greater than 85%) | 5 (Level 5: the growth inhibition rate is greater than 85%) | 5 (Level 5: the growth inhibition rate is greater than 85%) | 5 (Level 5: the growth inhibition rate is greater than 85%) | 5 (Level 5: the growth inhibition rate is greater than 85%)
Cc1cn(C)nc1SC(=O)[C@@H](C)Oc1nc(F)c(Cl)c(N)c1Cl [Compound 2-365] | 5 (Level 5: the growth inhibition rate is greater than 85%) | 5 (Level 5: the growth inhibition rate is greater than 85%) | 5 (Level 5: the growth inhibition rate is greater than 85%) | 5 (Level 5: the growth inhibition rate is greater than 85%) | 5 (Level 5: the growth inhibition rate is greater than 85%)
CC(Oc1nc(F)c(Cl)c(N)c1Cl)C(=O)Sc1cccc(C(C)C)c1 (stereo not shown) [Compound 2-360] | 5 (Level 5: the growth inhibition rate is greater than 85%) | 5 (Level 5: the growth inhibition rate is greater than 85%) | 5 (Level 5: the growth inhibition rate is greater than 85%) | 5 (Level 5: the growth inhibition rate is greater than 85%) | 5 (Level 5: the growth inhibition rate is greater than 85%)
Cc1cccc(COC(=O)C(C)Oc2nc(F)c(Cl)c(N)c2Cl)c1 (stereo not shown) [Compound 2-304] | 5 (Level 5: the growth inhibition rate is greater than 85%) | 5 (Level 5: the growth inhibition rate is greater than 85%) | 5 (Level 5: the growth inhibition rate is greater than 85%) | 5 (Level 5: the growth inhibition rate is greater than 85%) | 5 (Level 5: the growth inhibition rate is greater than 85%)
CCCCC(C)SC(=O)[C@@H](C)Oc1nc(F)c(Cl)c(N)c1Cl (stereo partly shown) [Compound 2-114] | 5 (Level 5: the growth inhibition rate is greater than 85%) | 5 (Level 5: the growth inhibition rate is greater than 85%) | 5 (Level 5: the growth inhibition rate is greater than 85%) | 5 (Level 5: the growth inhibition rate is greater than 85%) | 5 (Level 5: the growth inhibition rate is greater than 85%)
C[C@@H](Oc1nc(F)c(Cl)c(N)c1Cl)C(=O)Sc1ccncc1 [Compound 2-363] | 5 (Level 5: the growth inhibition rate is greater than 85%) | 5 (Level 5: the growth inhibition rate is greater than 85%) | 5 (Level 5: the growth inhibition rate is greater than 85%) | 5 (Level 5: the growth inhibition rate is greater than 85%) | 5 (Level 5: the growth inhibition rate is greater than 85%)
CCC(CC)SC(=O)[C@@H](C)Oc1nc(F)c(Cl)c(N)c1Cl [Compound 2-98] | 5 (Level 5: the growth inhibition rate is greater than 85%) | 5 (Level 5: the growth inhibition rate is greater than 85%) | 5 (Level 5: the growth inhibition rate is greater than 85%) | 5 (Level 5: the growth inhibition rate is greater than 85%) | 5 (Level 5: the growth inhibition rate is greater than 85%)
CC(Oc1nc(F)c(Cl)c(N)c1Cl)C(=O)OCc1ccccc1Cl (stereo not shown) [Compound 2-314] | 5 (Level 5: the growth inhibition rate is greater than 85%) | 5 (Level 5: the growth inhibition rate is greater than 85%) | 5 (Level 5: the growth inhibition rate is greater than 85%) | 5 (Level 5: the growth inhibition rate is greater than 85%) | 5 (Level 5: the growth inhibition rate is greater than 85%)
